Holding throughout (assay): biochemical
Holding throughout (format): binding

The target of one assay is DRB1*0404 (Homo sapiens, UniProt P01903+P01911, A100R/A169T/F76Y/I96L/K127E/L162R/M171V/N62H/P40V/Q125Y/R42H/S133A/S149N/S66Y/V209L/W38E). The settings on record: IC50 nM to purified HLA DRB1*0404.
For the next assay, the target named is T1, DRB1*0301 (Homo sapiens, UniProt P01903+P01911, A100K/A102G/A103R/A169T/F55Y/I96L/K41T/L162R/M171V/P40S/Q125H/Q178H/Q39Y/R42S/S66N/T106N/T262R/W38E/Y61H).
T1 construct: made in house; host or cells: EBV-transformed homozygous human B cell lines, transfected fibroblasts or single-allele 721.221 transfectants

The target in another assay is DRB1*1302 (Homo sapiens, UniProt P01903+P01911, A100E/A169T/K41T/L162R/M171V/P40S/Q125H/Q178H/Q39Y/Q99D/R42S/S66N/T262R/V115G/W38E/Y61H). The settings on record: read-out: IC50 nM to purified HLA DRB1*1302.
In another assay the target is T2, DRB1*0401 (Homo sapiens, UniProt P01903+P01911, A100K/A169T/F76Y/I96L/K127E/L162R/M171V/N62H/P40V/Q125Y/R42H/S133A/S149N/S66Y/V115G/V209L/W38E).
T2 construct: made in house; host or cells: EBV-transformed homozygous human B cell lines, transfected fibroblasts or single-allele 721.221 transfectants
Particulars: read-out: IC50 nM to purified HLA DRB1*0401.

Another assay deals with T3, DRB1*1501 (Homo sapiens, UniProt P01903+P01911).
T3 construct: made in house; host or cells: EBV-transformed homozygous human B cell lines, transfected fibroblasts or single-allele 721.221 transfectants
Particulars: read-out: IC50 nM to purified HLA DRB1*1501.

A further assay addresses T4, DRB1*0101 (Homo sapiens, UniProt P01903+P01911, A100R/D57E/F55L/F60I/F76Y/I96L/L162R/M171V/P40L/Q125E/R42F/V115G/Y59C).
T4 construct: made in house; host or cells: EBV-transformed homozygous human B cell lines, transfected fibroblasts or single-allele 721.221 transfectants
The settings on record: IC50 nM to purified HLA DRB1*0101.

For orientation: IC50 means the midpoint of a concentration-inhibition curve.

Chain of DRB1*1302 (P01903 26-254 limits assumed, other chains not shown): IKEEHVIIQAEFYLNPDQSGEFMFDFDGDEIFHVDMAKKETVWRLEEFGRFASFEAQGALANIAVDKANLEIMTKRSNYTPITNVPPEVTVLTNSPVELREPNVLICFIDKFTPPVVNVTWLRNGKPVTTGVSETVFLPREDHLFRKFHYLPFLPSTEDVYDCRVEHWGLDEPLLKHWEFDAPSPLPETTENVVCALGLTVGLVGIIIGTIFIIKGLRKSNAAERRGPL
T1 sequence (P01903 26-254, other chains not shown): as the sequence (P01903 26-254 limits assumed, other chains not shown) above

On to `CC[C@H](C)[C@H](NC(=O)[C@H](CCCNC(=N)N)NC(=O)[C@H](CCCNC(=N)N)NC(=O)[C@@H](NC(=O)[C@H](CCC(=O)O)NC(=O)[C@H](CCC(=O)O)NC(=O)[C@H](CCCCN)NC(=O)[C@H](CC(=O)O)NC(=O)[C@H](Cc1ccc(O)cc1)NC(=O)[C@H](CC(C)C)NC(=O)[C@@H](NC(=O)[C@H](CC(C)C)NC(=O)[C@H](CCC(=O)O)NC(=O)[C@@H](N)CCCNC(=N)N)[C@@H](C)CC)[C@@H](C)CC)C(=O)N[C@@H](Cc1c[nH]c2ccccc12)C(=O)O` [Flu.NP.109], for which the IC50 against DRB1*0404 is 1800 nM; against DRB1*0301 it was 0.059 µM.

Take `CC[C@H](C)[C@H](NC(=O)[C@@H](NC(=O)[C@H](CC(C)C)NC(=O)[C@H](CO)NC(=O)[C@H](CCC(N)=O)NC(=O)[C@H](CC(=O)O)NC(=O)[C@@H](NC(=O)[C@H](CC(=O)O)NC(=O)[C@H](CC(=O)O)NC(=O)[C@H](CC(N)=O)NC(=O)[C@H](CCCNC(=N)N)NC(=O)[C@@H](NC(=O)[C@H](CCC(=O)O)NC(=O)CNC(=O)CN)C(C)C)C(C)C)[C@@H](C)CC)C(=O)O` [Flu.PB2.250]: the results for the half-maximal inhibitory concentration (IC50) on DRB1*0404 and on DRB1*1302 were 458 nM and 2500 nM, respectively.

As for `CC(C)C[C@H](NC(=O)[C@H](C)NC(=O)CNC(=O)[C@H](CCC(N)=O)NC(=O)[C@@H](N)[C@@H](C)O)C(=O)N[C@@H](CC(C)C)C(=O)N[C@@H](CC(N)=O)C(=O)N[C@@H](CC(=O)O)C(=O)N[C@@H](CCCCN)C(=O)N[C@@H](Cc1c[nH]cn1)C(=O)N[C@@H](CO)C(=O)N[C@@H](CC(N)=O)C(=O)NCC(=O)N[C@H](C(=O)N[C@H](C(=O)N[C@@H](CCCCN)C(=O)N[C@@H](CC(=O)O)C(=O)O)C(C)C)[C@@H](C)O` [Flu.NA.115], the half-inhibitory concentration (IC50) on DRB1*0401 is 19000 nM; on DRB1*1302, 468 nM; against DRB1*0301, 0.177 µM; at DRB1*1501 it was 822 nM.

On to `CC[C@H](C)[C@H](NC(=O)[C@H](C)NC(=O)[C@@H](N)CCC(N)=O)C(=O)N[C@@H](CCSC)C(=O)N[C@@H](CC(=O)O)C(=O)N[C@@H](CCCCN)C(=O)N[C@@H](CC(=O)O)C(=O)N[C@H](C(=O)N[C@H](C(=O)N[C@@H](CC(C)C)C(=O)N[C@@H](CCCCN)C(=O)N[C@@H](C)C(=O)N[C@@H](CC(N)=O)C(=O)N[C@@H](Cc1ccccc1)C(=O)N[C@@H](CO)C(=O)O)[C@@H](C)CC)[C@@H](C)CC` [Flu.NS1.124], for which the midpoint of inhibition at DRB1*0404, the IC50, lay at 310 nM.

As to `CC[C@H](C)[C@H](NC(=O)[C@H](CCCNC(=N)N)NC(=O)[C@H](CCC(=O)O)NC(=O)[C@@H](N)C(C)C)C(=O)N[C@@H](CC(C)C)C(=O)N[C@@H](CCCCN)C(=O)N[C@@H](CCC(=O)O)C(=O)N[C@@H](CCC(=O)O)C(=O)N[C@@H](CO)C(=O)N[C@@H](CC(=O)O)C(=O)N[C@@H](CCC(=O)O)C(=O)N[C@@H](C)C(=O)N[C@@H](CC(C)C)C(=O)N[C@@H](CCCCN)C(=O)N[C@@H](CCSC)C(=O)O` [Flu.NS1.68], the 50% inhibitory concentration (IC50) came out at 679 nM on DRB1*0401, 5060 nM at DRB1*1302, 1.05 µM against DRB1*0301 and 5190 nM at DRB1*0101.

With `CC(C)C[C@H](NC(=O)[C@H](CCCCN)NC(=O)[C@H](CCCNC(=N)N)NC(=O)[C@H](CO)NC(=O)[C@H](CCC(=O)O)NC(=O)[C@H](C)NC(=O)[C@H](CO)NC(=O)[C@H](Cc1ccccc1)NC(=O)CNC(=O)[C@H](CCC(=O)O)NC(=O)[C@@H](N)CC(C)C)C(=O)N[C@@H](CC(C)C)C(=O)N[C@@H](CC(C)C)C(=O)N[C@H](C(=O)N[C@H](C(=O)O)C(C)C)C(C)C` [Flu.PA.658], the half-maximal inhibitory concentration (IC50) at DRB1*0401 was found to be 861 nM; at DRB1*1302, 2270 nM; against DRB1*0301, 0.661 µM; at DRB1*0101, 12 nM.

As for `CC[C@H](C)[C@H](NC(=O)[C@H](CO)NC(=O)[C@H](CCC(=O)O)NC(=O)CN)C(=O)N[C@H](C(=O)N[C@H](C(=O)N[C@@H](CCC(=O)O)C(=O)N[C@@H](CC(C)C)C(=O)N[C@@H](CC(=O)O)C(=O)N[C@@H](CC(=O)O)C(=O)N1CCC[C@H]1C(=O)N[C@@H](CC(N)=O)C(=O)N[C@@H](C)C(=O)N[C@@H](CC(C)C)C(=O)N[C@@H](CC(C)C)C(=O)O)C(C)C)[C@@H](C)CC` [Flu.PA.61], the figures for the half-maximal inhibitory concentration (IC50) against DRB1*0404 and on DRB1*1302 were 80 nM and 59 nM, respectively.

Values taken from patent publication US9511134B2, “Inducing immune responses to influenza virus using polypeptide and nucleic acid compositions” (priority 2006, dated 2016).
